ChEMBL document CHEMBL4825682, “Discovery of novel purinylthiazolylethanone derivatives as anti-Candida albicans agents through possible multifaceted mechanisms” (Eur J Med Chem, 2021)
In brackets after ≈: the same amount, converted by molar mass. One block for each compound: values may come before it. Activity calls are given as the source filed them. The rule behind the calls is not given here.

How the values were obtained:
Candida albicans [1] = assay: Antifungal activity against Candida albicans assessed as fungal growth inhibition by CLSI protocol based microbroth dilution method; format: functional
Candida albicans [2] = assay: Antifungal activity against Candida albicans ATCC 90023 assessed as fungal growth inhibition by CLSI protocol based microbroth dilution method; format: functional
Candida tropicalis [3] = assay: Antifungal activity against Candida tropicalis assessed as fungal growth inhibition by CLSI protocol based microbroth dilution method; format: functional
Aspergillus fumigatus = assay: Antifungal activity against Aspergillus fumigatus assessed as fungal growth inhibition by CLSI protocol based microbroth dilution method; format: functional
Candida parapsilosis = assay: Antifungal activity against Candida parapsilosis ATCC 22019 assessed as fungal growth inhibition by CLSI protocol based microbroth dilution method; format: functional; conditions: Lodderomyces parapsilosis
[4] = Hemolytic activity in human RBC; format: cell-based, Erythrocyte; conditions: human red blood cells (erythrocytes)
[5] = Hemolytic activity in human RBC at MIC relative to control; format: ADME, cell-based, Erythrocyte; conditions: human red blood cells (erythrocytes), read-out: Activity
[6] = Hemolytic activity in human RBC at 8 times MIC relative to control; format: ADME, cell-based, Erythrocyte; conditions: human red blood cells (erythrocytes), read-out: Activity
L02 [7] = assay: Cytotoxicity against human L02 cells assessed as increase in cell viability measured after 72 hrs by CCK8 assay relative to control; format: cell-based; conditions: l02, 72 h
L02 [8] = assay: Cytotoxicity against human L02 cells at 100 ug/ml measured after 72 hrs by CCK8 assay; format: cell-based; conditions: l02, 72 h, dose 100 µg/ml
Candida albicans [9] = assay: Antifungal activity against Candida albicans measured after 16 passages; format: functional, organism-based
Candida tropicalis [10] = assay: Potentiation of fluconazole-induced antifungal activity against Candida tropicalis assessed as fluconazole MIC (reference value: […] ug/ml); format: functional
Candida albicans [11] = assay: Synergistic antifungal activity against Candida albicans assessed as fractional inhibitory concentration index in presence of fluconazole; format: functional
Candida albicans [12] = assay: Potentiation of fluconazole-induced antifungal activity against Candida albicans assessed as fluconazole MIC (reference value: […] ug/ml); format: functional
Candida tropicalis [13] = assay: Additive antifungal activity against Candida tropicalis assessed as fractional inhibitory concentration index in presence of fluconazole; format: functional
Candida albicans [14] = assay: Antibiofilm activity against Candida albicans assessed as inhibition of biofilm formation at 0.5 to 5 times MIC by Alamar blue assay; format: functional, organism-based
Cell membrane [15] = assay: Induction of cell membrane permeabilization in Candida albicans up to 6 times MIC by propidium iodide staining based fluorescence assay; format: subcellular
Cell wall [16] = assay: Induction of cell wall damage in Candida albicans; format: subcellular
Cell wall [17] = assay: Induction of cell wall damage in Candida tropicalis; format: subcellular
Cell wall [18] = assay: Induction of cell wall damage in Aspergillus fumigatus; format: subcellular
Cell membrane [19] = assay: Induction of cytoplasmic membrane depolarization in Candida albicans by diSC3(5)-dye based assay; format: subcellular
Cell membrane [20] = assay: Induction of cell membrane disruption in Candida albicans assessed as increase in protein leakage by Bradford assay; format: subcellular
Cell membrane [21] = assay: Induction of cell membrane destruction in Candida albicans assessed as reduction in LDH activity at MIC relative to control; format: subcellular; parameters: scale not given: the % may be the effect or the level left
Cell membrane [22] = assay: Induction of cell membrane destruction in Candida albicans assessed as reduction in LDH activity at 4 times MIC relative to control; format: subcellular; parameters: scale not given: the % may be the effect or the level left
Candida albicans [23] = assay: Antifungal activity against Candida albicans assessed as reduction in metabolic activity at 0.5 to 6 times MIC by resazurin assay; format: functional, organism-based
Candida albicans [24] = assay: Induction of oxidative stress in Candida albicans assessed as increase in ROS generation by […] probe based assay; format: functional, organism-based
Candida albicans [25] = assay: Induction of reactive nitrogen species generation in Candida albicans assessed as increase in NO level at 6 times MIC by Greiss reagent assay relative to control; format: functional
Candida albicans [26] = assay: Induction of oxidative stress in Candida albicans assessed as decrease in cellular GSH level; format: functional, organism-based

SMILES: O=C(Cn1cnc2c(Cl)ncnc21)c1nccs1
MIC (Candida albicans [1]): 64 µg/mL (≈ 229 µM)
MIC (Candida albicans [2]): 128 µg/mL (≈ 458 µM)
MIC (Candida tropicalis [3]): 32 µg/mL (≈ 114 µM)
MIC (Aspergillus fumigatus): 128 µg/mL (≈ 458 µM)
MIC (Candida parapsilosis): 64 µg/mL (≈ 229 µM)
HC50 [4]: > 256 µg/mL

SMILES: O=C(Cn1cnc2c(N3CCOCC3)ncnc21)c1nccs1
MIC (Candida albicans [1]): 64 µg/mL (≈ 194 µM)
MIC (Candida albicans [2]): 2 µg/mL (≈ 6.05 µM)
MIC (Candida tropicalis [3]): 32 µg/mL (≈ 96.9 µM)
MIC (Aspergillus fumigatus): 64 µg/mL (≈ 194 µM)
MIC (Candida parapsilosis): 2 µg/mL (≈ 6.05 µM)
HC50 [4]: > 256 µg/mL

SMILES: CCOC(=O)CN1CCN(c2ncnc3c2ncn3CC(=O)c2nccs2)CC1
MIC (Candida albicans [1]): 1 µg/mL (≈ 2.41 µM)
MIC (Candida albicans [2]): 16 µg/mL (≈ 38.5 µM)
MIC (Candida tropicalis [3]): 8 µg/mL (≈ 19.3 µM)
MIC (Aspergillus fumigatus): 16 µg/mL (≈ 38.5 µM)
MIC (Candida parapsilosis): 8 µg/mL (≈ 19.3 µM)
HC50 [4]: > 256 µg/mL
hemolysis at 1 x MIC [5]: 2.6%
hemolysis at 8 x MIC [6]: 3.8%
Activity (L02 [7]): > 60%
Activity (L02 [8]): Toxic
Activity (Candida albicans [9]): Active
MIC (Candida tropicalis [10]): 8 µg/mL
fractional inhibitory concentration index (FICI) (Candida albicans [11]): 0.56
MIC (Candida albicans [12]): 0.0625 µg/mL
fractional inhibitory concentration index (FICI) (Candida tropicalis [13]): 1.02
inhibition (Candida albicans [14]): Active
Activity (Cell membrane [15]): Active
Activity (Cell wall [16]): Active
Activity (Cell wall [17]): Active
Activity (Cell wall [18]): inactive
Activity (Cell membrane [19]): Active
Activity (Cell membrane [20]): Dose-Dependent Effect
Activity (Cell membrane [21]): 30%
Activity (Cell membrane [22]): 50%
Activity (Candida albicans [23]): Active
Activity (Candida albicans [24]): Dose-Dependent Effect
fold change (FC) (Candida albicans [25]): 3.6
Activity (Candida albicans [26]): Active

SMILES: CCOC(=O)CN1CCN(c2ncnc3c2ncn3C/C(=N/O)c2nccs2)CC1
MIC (Candida albicans [1]): 4 µg/mL (≈ 9.29 µM)
MIC (Candida albicans [2]): 16 µg/mL (≈ 37.2 µM)
MIC (Candida tropicalis [3]): 64 µg/mL (≈ 149 µM)
MIC (Aspergillus fumigatus): 16 µg/mL (≈ 37.2 µM)
MIC (Candida parapsilosis): 64 µg/mL (≈ 149 µM)
HC50 [4]: > 256 µg/mL

SMILES: O=C(Cn1cnc2c(N3CCN(Cc4ccccc4F)CC3)ncnc21)c1nccs1
MIC (Candida albicans [1]): 256 µg/mL (≈ 585 µM)
MIC (Candida albicans [2]): 2 µg/mL (≈ 4.57 µM)
MIC (Candida tropicalis [3]): 256 µg/mL (≈ 585 µM)
MIC (Aspergillus fumigatus): 32 µg/mL (≈ 73.1 µM)
MIC (Candida parapsilosis): 256 µg/mL (≈ 585 µM)
HC50 [4]: > 256 µg/mL

SMILES: Cc1ccc(CN2CCN(c3ncnc4c3ncn4CC(=O)c3nccs3)CC2)cc1
MIC (Candida albicans [1]): 16 µg/mL (≈ 36.9 µM)
MIC (Candida albicans [2]): 128 µg/mL (≈ 295 µM)
MIC (Candida tropicalis [3]): 64 µg/mL (≈ 148 µM)
MIC (Aspergillus fumigatus): 64 µg/mL (≈ 148 µM)
MIC (Candida parapsilosis): 64 µg/mL (≈ 148 µM)
HC50 [4]: > 256 µg/mL

SMILES: CCO/N=C(/Cn1cnc2c(N3CCN(CC(=O)OCC)CC3)ncnc21)c1nccs1
MIC (Candida albicans [1]): 64 µg/mL (≈ 140 µM)
MIC (Candida albicans [2]): 64 µg/mL (≈ 140 µM)
MIC (Candida tropicalis [3]): 128 µg/mL (≈ 279 µM)
MIC (Aspergillus fumigatus): 128 µg/mL (≈ 279 µM)
MIC (Candida parapsilosis): 128 µg/mL (≈ 279 µM)
HC50 [4]: > 256 µg/mL

SMILES: O=C(Cn1cnc2c(N3CCN(Cc4ccccc4Cl)CC3)ncnc21)c1nccs1
MIC (Candida albicans [1]): 256 µg/mL (≈ 564 µM)
MIC (Candida albicans [2]): 2 µg/mL (≈ 4.41 µM)
MIC (Candida tropicalis [3]): 256 µg/mL (≈ 564 µM)
MIC (Aspergillus fumigatus): 64 µg/mL (≈ 141 µM)
MIC (Candida parapsilosis): 256 µg/mL (≈ 564 µM)
HC50 [4]: > 256 µg/mL

SMILES: CC(C)(C)OC(=O)N1CCN(C(=O)CN2CCN(c3ncnc4c3ncn4CC(=O)c3nccs3)CC2)CC1
MIC (Candida albicans [1]): 32 µg/mL (≈ 57.6 µM)
MIC (Candida albicans [2]): 16 µg/mL (≈ 28.8 µM)
MIC (Candida tropicalis [3]): 64 µg/mL (≈ 115 µM)
MIC (Aspergillus fumigatus): 128 µg/mL (≈ 230 µM)
MIC (Candida parapsilosis): 128 µg/mL (≈ 230 µM)
HC50 [4]: > 256 µg/mL

SMILES: N#CCN1CCN(c2ncnc3c2ncn3CC(=O)c2nccs2)CC1
MIC (Candida albicans [1]): 8 µg/mL (≈ 21.7 µM)
MIC (Candida albicans [2]): 256 µg/mL (≈ 695 µM)
MIC (Candida tropicalis [3]): 4 µg/mL (≈ 10.9 µM)
MIC (Aspergillus fumigatus): 16 µg/mL (≈ 43.4 µM)
MIC (Candida parapsilosis): 8 µg/mL (≈ 21.7 µM)
HC50 [4]: > 256 µg/mL

The remaining compounds from weak to strong by MIC (Candida albicans [1]), led by results:

MIC (Candida albicans [1]): 256 µg/mL (≈ 748 µM)
MIC (Candida albicans [2]): 8 µg/mL (≈ 23.4 µM)
MIC (Candida tropicalis [3]): 256 µg/mL (≈ 748 µM)
MIC (Aspergillus fumigatus): 64 µg/mL (≈ 187 µM)
MIC (Candida parapsilosis): 256 µg/mL (≈ 748 µM)
SMILES: O=C(Cn1cnc2c(N3CCCCCC3)ncnc21)c1nccs1
HC50 [4]: > 256 µg/mL

MIC (Candida albicans [1]): 256 µg/mL (≈ 697 µM)
MIC (Candida albicans [2]): 16 µg/mL (≈ 43.5 µM)
MIC (Candida tropicalis [3]): 256 µg/mL (≈ 697 µM)
MIC (Aspergillus fumigatus): 32 µg/mL (≈ 87.1 µM)
MIC (Candida parapsilosis): 256 µg/mL (≈ 697 µM)
SMILES: C#CCN1CCN(c2ncnc3c2ncn3CC(=O)c2nccs2)CC1
HC50 [4]: > 256 µg/mL

MIC (Candida albicans [1]): 32 µg/mL (≈ 73.1 µM)
MIC (Candida albicans [2]): 256 µg/mL (≈ 585 µM)
MIC (Candida tropicalis [3]): 64 µg/mL (≈ 146 µM)
MIC (Aspergillus fumigatus): 32 µg/mL (≈ 73.1 µM)
MIC (Candida parapsilosis): 256 µg/mL (≈ 585 µM)
SMILES: O=C(Cn1cnc2c(N3CCN(Cc4ccc(F)cc4)CC3)ncnc21)c1nccs1
HC50 [4]: > 256 µg/mL

MIC (Candida albicans [1]): 8 µg/mL (≈ 14.5 µM)
MIC (Candida albicans [2]): 256 µg/mL (≈ 465 µM)
MIC (Candida tropicalis [3]): 16 µg/mL (≈ 29.1 µM)
MIC (Aspergillus fumigatus): 32 µg/mL (≈ 58.1 µM)
MIC (Candida parapsilosis): 16 µg/mL (≈ 29.1 µM)
SMILES: O=C(Cn1cnc2c(N3CCN(CC(=O)N(C4CCCCC4)C4CCCCC4)CC3)ncnc21)c1nccs1
HC50 [4]: > 256 µg/mL

MIC (Candida albicans [1]): 4 µg/mL (≈ 9.67 µM)
MIC (Candida albicans [2]): 16 µg/mL (≈ 38.7 µM)
MIC (Candida tropicalis [3]): 32 µg/mL (≈ 77.4 µM)
MIC (Aspergillus fumigatus): 128 µg/mL (≈ 310 µM)
MIC (Candida parapsilosis): 4 µg/mL (≈ 9.67 µM)
SMILES: CCCCCCN1CCN(c2ncnc3c2ncn3CC(=O)c2nccs2)CC1
HC50 [4]: > 256 µg/mL

MIC (Candida albicans [1]): 4 µg/mL (≈ 8.5 µM)
MIC (Candida albicans [2]): 16 µg/mL (≈ 34 µM)
MIC (Candida tropicalis [3]): 8 µg/mL (≈ 17 µM)
MIC (Aspergillus fumigatus): 32 µg/mL (≈ 68 µM)
MIC (Candida parapsilosis): 32 µg/mL (≈ 68 µM)
SMILES: CC(C)N(C(=O)CN1CCN(c2ncnc3c2ncn3CC(=O)c2nccs2)CC1)C(C)C
HC50 [4]: > 256 µg/mL

MIC (Candida albicans [1]): 1 µg/mL (≈ 3.05 µM)
MIC (Candida albicans [2]): 256 µg/mL (≈ 780 µM)
MIC (Candida tropicalis [3]): 64 µg/mL (≈ 195 µM)
MIC (Aspergillus fumigatus): 128 µg/mL (≈ 390 µM)
MIC (Candida parapsilosis): 64 µg/mL (≈ 195 µM)
SMILES: O=C(Cn1cnc2c(N3CCCCC3)ncnc21)c1nccs1
HC50 [4]: > 256 µg/mL
